Measurements: patent US11213032B2, “Insecticidal compounds” (SYNGENTA PARTICIPATIONS AG, priority 2017, dated 2022)

Experiments:
Format in all cases: in vivo
[1] = tested on: Tetranychus urticae (Two-Spotted Spider Mite); experiment: whole plant or invertebrate; conditions: 192 h
Description: Tetranychus urticae (Two-Spotted Spider Mite): Feeding/Contact Activity
Bean leaf discs on agar in 24-well microtiter plates were sprayed with aqueous test solutions prepared from 10,000 ppm DMSO stock solutions. After drying the leaf discs were infested with a mite population of mixed ages. The samples were assessed for mortality on mixed population (mobile stages) 8 days after infestation.

[2] = tested on: Spodoptera littoralis (Egyptian Cotton Leaf Worm); experiment: Spodoptera littoralis (Egyptian cotton leaf worm) on cotton leaf discs; conditions: foliar, 72 h, L1 larvae, 3 days after infestation
Description: Spodoptera littoralis (Egyptian Cotton Leaf Worm)
Cotton leaf discs were placed onto agar in 24-well microtiter plates and sprayed with aqueous test solutions prepared from 10,000 ppm DMSO stock solutions. After drying the leaf discs were infested with five L1 larvae. The samples were assessed for mortality, anti-feeding effect, and growth inhibition in comparison to untreated samples 3 days after infestation. Control of Spodoptera littoralis by a test sample is given when at least one of the categories mortality, anti-feedant effect, and growth inhibition is higher than the untreated sample.

[3] = tested on: Diabrotica balteata (Corn Root Worm); experiment: Diabrotica balteata (corn root worm) on maize sprouts, spray; conditions: 96 h, L2 larvae, 4 days after infestation, read-out: effect in at least one of the two categories (mortality or growth inhibition)
Description: Diabrotica balteata (Corn Root Worm)
Maize sprouts placed onto an agar layer in 24-well microtiter plates were treated with aqueous test solutions prepared from 10,000 ppm DMSO stock solutions by spraying. After drying, the plates were infested with L2 larvae (6 to 10 per well). The samples were assessed for mortality and growth inhibition in comparison to untreated samples 4 days after infestation.

[4] = tested on: Plutella xylostella (Diamond Back Moth); experiment: Plutella xylostella (diamond back moth) feeding/contact activity; conditions: 120 h, L2 larvae, artificial diet, 5 days after infestation
Description: Plutella xylostella (Diamond Back Moth): Feeding/Contact Activity
24-well microtiter plates with artificial diet were treated with aqueous test solutions prepared from 10,000 ppm DMSO stock solutions by pipetting. After drying, the plates were infested with L2 larvae (10 to 15 per well). The samples were assessed for mortality 5 days after infestation.

[5] = tested on: Myzus persicae (Green Peach Aphid); experiment: Myzus persicae (green peach aphid) feeding/contact activity; conditions: 144 h, mixed ages, 6 days after infestation
Description: Myzus persicae (Green Peach Aphid): Feeding/Contact Activity
Sunflower leaf discs were placed onto agar in a 24-well microtiter plate and sprayed with aqueous test solutions prepared from 10,000 ppm DMSO stock solutions. After drying, the leaf discs were infested with an aphid population of mixed ages. The samples were assessed for mortality 6 days after infestation.

[6] = tested on: Euschistus heros (Neotropical Brown Stink Bug); experiment: Euschistus heros (neotropical brown stink bug) on soybean leaves, spray; conditions: 120 h, N2 nymphs, 5 days after infestation, read-out: effect in at least one of the two categories (mortality or growth inhibition)
Description: Euschistus heros (Neotropical Brown Stink Bug)
Soybean leaves on agar in 24-well microtiter plates were sprayed with aqueous test solutions prepared from 10,000 ppm DMSO stock solutions. After drying the leaves were infested with N2 nymphs. The samples were assessed for mortality and growth inhibition in comparison to untreated samples 5 days after infestation.

[7] = tested on: Thrips tabaci (Onion thrips); experiment: Thrips tabaci (onion thrips) feeding/contact activity; conditions: 144 h, mixed ages, 6 days after infestation
Description: Thrips tabaci (Onion thrips) Feeding/Contact Activity
Sunflower leaf discs were placed on agar in 24-well microtiter plates and sprayed with aqueous test solutions prepared from 10,000 ppm DMSO stock solutions. After drying the leaf discs were infested with a thrips population of mixed ages. The samples were assessed for mortality 6 days after infestation.

CCOC1=NOC(NC(=O)c2ccc(C3=NS[C@](c4cc(Cl)cc(Cl)c4)(C(F)(F)F)C3)cc2C)C1 (stereo partly drawn) [Compound A01, 4-[(5R)-5-(3,5-dichlorophenyl)-5-(trifluoromethyl)-4H-isothiazol-3-yl]-N-(3-ethoxy-4,5-dihydroisoxazol-5-yl)-2-methyl-benzamide]
≥ 80%: mortality at 200 ppm [1] | percent control (mortality, anti-feedant effect or growth inhibition) at 200 ppm [2] | percent effect (mortality or growth inhibition) at 200 ppm [3] | mortality at 200 ppm [4] | mortality at 200 ppm [5] | percent effect (mortality or growth inhibition) at 200 ppm [6] | mortality at 200 ppm [7]

CCOC1=NOC(NC(=O)c2ccc(N3CCC(c4cc(Cl)cc(Cl)c4)(C(F)(F)F)C3)cc2C)C1 (stereo not shown) [Compound A02, 4-[3-(3,5-dichlorophenyl)-3-(trifluoromethyl)pyrrolidin-1-yl]-N-(3-ethoxy-4,5-dihydroisoxazol-5-yl)-2-methyl-benzamide]
≥ 80%: mortality at 200 ppm [1] | percent control (mortality, anti-feedant effect or growth inhibition) at 200 ppm [2] | percent effect (mortality or growth inhibition) at 200 ppm [3] | mortality at 200 ppm [4] | percent effect (mortality or growth inhibition) at 200 ppm [6] | mortality at 200 ppm [7]
